The structures appear in SMILES notation.

In one assay the test system is MOLM14 F691L cells. As to the kind of experiment: MOLM14 F691L cell viability assay (Cell Titer Glo). Type of assay: cell-based. On the procedure: (§1) Both cell lines have activated FLT3 receptors, each of which carry additional resistance mutations in the kinase domain (D835Y and F691L, respectively).
(§2) MOLM14 D835Y and MOLM14 F691L cells were grown in RPMI-1640 media supplemented with 20% fetal bovine serum (FBS). For viability/cytotoxicity assessments, cells were seeded into 1536-well white polystyrene tissue culture-treated Greiner plates using a Multidrop Combi dispenser (ThermoFisher), in final volume 5 μL of growth media per well, at a density of 1000 cells per well. After cell addition, 23 nL of test compound were transferred into individual wells (22 doses tested for each test compound, with a 1:2 dilution series starting at 10 μM) via a 1536 pin-tool. Bortezomib (final concentration 2.3 μM) was used as a positive control for cell cytotoxicity. Plates were incubated for 48 hours at standard incubator conditions covered by a stainless steel gasketed lid to prevent evaporation. 48 hours post compound addition, 3 μL of Cell Titer Glo (Promega) were added to each well and plates were incubated at room temperature for 15 minutes with the stainless-steel lid in place. Luminescence readings were taken using a Viewlux imager (PerkinElmer) with a 2 second exposure time per plate.
In general terms: In ATP-based viability assays light output follows the ATP content of the culture.

In a further assay the target is T1, FLT3 (Homo sapiens, UniProt P36888).
T1 construct: purchased Reaction Biology (RBC HotSpot Kinase Assay)
T1 sequence (P36888 564-958 limits assumed): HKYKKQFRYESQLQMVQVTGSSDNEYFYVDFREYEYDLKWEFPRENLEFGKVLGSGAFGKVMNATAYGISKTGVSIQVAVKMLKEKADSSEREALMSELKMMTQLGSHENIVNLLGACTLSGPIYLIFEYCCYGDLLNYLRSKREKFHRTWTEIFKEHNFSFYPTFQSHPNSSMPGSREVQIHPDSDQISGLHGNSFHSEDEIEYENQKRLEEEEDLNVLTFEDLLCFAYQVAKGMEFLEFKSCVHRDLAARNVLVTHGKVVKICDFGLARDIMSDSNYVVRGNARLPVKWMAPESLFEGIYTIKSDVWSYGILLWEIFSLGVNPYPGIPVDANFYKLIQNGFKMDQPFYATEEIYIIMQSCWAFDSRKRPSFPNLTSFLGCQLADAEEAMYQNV
As to the kind of experiment: RBC HotSpot Kinase Assay, FLT3. The class given is biochemical. The method in brief: (§3)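 Radiometric filter-binding (HotSpot) activity assay on isolated recombinant kinase, possibly truncated or catalytic domain only, in 20 mM Hepes pH 7.5, 10 mM MgCl2, 1 mM EGTA, 2 mM DTT, 1% DMSO. Compound preincubated 20 min with kinase and substrate, then ^33P-ATP added. Reaction 2 h at room temperature, read by P81 filter binding.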

The target in another assay is T2, IRAK1 (Homo sapiens, UniProt P51617).
T2 construct: purchased Reaction Biology (RBC HotSpot Kinase Assay)
The experiment in a line: RBC HotSpot Kinase Assay, IRAK1. The class given is biochemical. An outline of the steps:
as §3

For a further assay, the system named is MOLM14 D835Y cells. The experiment in a line: MOLM14 D835Y cell viability assay (Cell Titer Glo). Type of assay: cell-based. The method, then: as §1, §2
Another assay deals with T3, IRAK4 (Homo sapiens, UniProt Q9NWZ3).
T3 sequence (Q9NWZ3 1-460): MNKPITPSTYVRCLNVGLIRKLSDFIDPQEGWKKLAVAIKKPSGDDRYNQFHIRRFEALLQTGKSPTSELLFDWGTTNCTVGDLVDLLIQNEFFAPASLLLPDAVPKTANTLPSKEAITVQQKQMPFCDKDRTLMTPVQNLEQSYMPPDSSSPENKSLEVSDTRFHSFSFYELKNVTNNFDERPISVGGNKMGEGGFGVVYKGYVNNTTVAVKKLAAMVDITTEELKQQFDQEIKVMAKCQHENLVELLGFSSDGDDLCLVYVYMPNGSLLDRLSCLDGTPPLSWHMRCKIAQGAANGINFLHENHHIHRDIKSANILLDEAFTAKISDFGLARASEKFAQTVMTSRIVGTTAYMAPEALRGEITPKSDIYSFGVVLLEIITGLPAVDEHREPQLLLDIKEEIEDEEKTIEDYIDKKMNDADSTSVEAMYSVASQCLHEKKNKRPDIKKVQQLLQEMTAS
As to the kind of experiment: RBC HotSpot Kinase Assay, IRAK4. The class given is biochemical. More on the design: purchased Reaction Biology (RBC HotSpot Kinase Assay). An outline of the steps:
as §3

T2 sequence (P51617 whole entry): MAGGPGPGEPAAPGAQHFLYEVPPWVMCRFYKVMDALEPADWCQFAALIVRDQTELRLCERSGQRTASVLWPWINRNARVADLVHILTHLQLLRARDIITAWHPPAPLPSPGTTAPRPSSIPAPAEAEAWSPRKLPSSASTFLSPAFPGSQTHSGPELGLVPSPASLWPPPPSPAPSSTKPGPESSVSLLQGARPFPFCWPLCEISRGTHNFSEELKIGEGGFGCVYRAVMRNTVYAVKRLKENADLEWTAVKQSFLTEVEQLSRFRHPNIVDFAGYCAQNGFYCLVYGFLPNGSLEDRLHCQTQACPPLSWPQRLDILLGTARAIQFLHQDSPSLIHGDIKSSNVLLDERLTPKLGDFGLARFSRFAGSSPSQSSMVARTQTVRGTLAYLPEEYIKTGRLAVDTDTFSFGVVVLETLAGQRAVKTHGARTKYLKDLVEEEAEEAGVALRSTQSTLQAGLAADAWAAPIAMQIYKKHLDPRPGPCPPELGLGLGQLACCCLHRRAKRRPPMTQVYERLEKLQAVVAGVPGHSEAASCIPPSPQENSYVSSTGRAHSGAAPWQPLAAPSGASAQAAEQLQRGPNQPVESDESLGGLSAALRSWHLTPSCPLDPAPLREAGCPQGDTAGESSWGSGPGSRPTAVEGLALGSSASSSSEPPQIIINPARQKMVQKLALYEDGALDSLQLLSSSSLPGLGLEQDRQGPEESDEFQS

Regarding `COc1cc2ncc(-c3cccc(N[C@@H]4CCCNC4)n3)n2nc1C(C)(O)C(F)(F)F` (single isomer, unassigned) [Compound 131], the IC50 in the assay on MOLM14 F691L cells (48 hours) is 545 nM; against FLT3, < 0.5 nM; against IRAK1, 8200 nM; in the assay on MOLM14 D835Y cells (48 hours) it was 69 nM; on IRAK4 it was 424 nM.

Turning to `COc1cc2ncc(-c3cccc(N[C@@H]4CCCNC4)n3)n2nc1C(C)(O)C(F)(F)F` (single isomer, unassigned) [Compound 132], the IC50 with MOLM14 F691L cells (48 hours) was 3440 nM; against FLT3 it was 5 nM; on IRAK1 it was > 10000 nM; in the assay with MOLM14 D835Y cells (48 hours), 486 nM; at IRAK4, 1770 nM.

Regarding `COc1cc2ncc(-c3cccc(N[C@H]4CNCC[C@@H]4F)n3)n2nc1C(C)(O)C(F)(F)F` (single isomer, unassigned; fast-eluting) [Compound 134], the concentration for half-maximal inhibition (IC50) is 1720 nM in the assay on MOLM14 F691L cells (48 hours); < 0.5 nM at FLT3; 8640 nM against IRAK1; 244 nM in the assay on MOLM14 D835Y cells (48 hours); 183 nM at IRAK4.

On to `COc1cc2ncc(-c3cccc(N[C@H]4CNC[C@@H]4F)n3)n2nc1C(C)(O)C(F)(F)F` (single isomer, unassigned; slow-eluting) [Compound 135], for which the IC50 is 4330 nM in the assay on MOLM14 F691L cells (48 hours); < 0.5 nM at FLT3; > 10000 nM against IRAK1; 386 nM in the assay on MOLM14 D835Y cells (48 hours); 169 nM on IRAK4.

`COc1cc2ncc(-c3cccc(N[C@H]4CNCC[C@@H]4F)n3)n2nc1C(C)(O)C(F)(F)F` (single isomer, unassigned; slow-eluting) [Compound 136]: the IC50 in the assay with MOLM14 F691L cells (48 hours) was 344 nM; against FLT3 it was < 0.5 nM; against IRAK1, 3140 nM; in the assay with MOLM14 D835Y cells (48 hours), 31 nM; at IRAK4, 10 nM.

For `Cn1cc(-c2ccc3ncc(-c4cccc(N[C@H]5CNC[C@@H]5F)n4)n3n2)cn1` [Compound 1, N-((3S,4S)-4-fluoropyrrolidin-3-yl)-6-(6-(1-methyl-1H-pyrazol-4-yl)imidazo[1,2-b]pyridazin-3-yl)pyridin-2-amine], the IC50 is 1680 nM with MOLM14 F691L cells (Homo sapiens, MOLM-14, 48 h); 0.6 nM on FLT3; 331 nM on IRAK1; 60 nM with MOLM14 D835Y cells (Homo sapiens, MOLM-14, 48 h); 13 nM at IRAK4.

With `COc1cc2ncc(-c3cccc(N[C@@H]4CCCNC4)n3)n2nc1C1CC1` [Compound 101], the IC50 is 596 nM in the assay on MOLM14 F691L cells (Homo sapiens, MOLM-14, 48 h); < 0.5 nM at FLT3; 2320 nM against IRAK1; 11 nM at IRAK4.

Turning to `COc1cc2ncc(-c3cc(F)cc(N[C@H]4CNC[C@@H]4F)n3)n2nc1C1CC1` [Compound 103, 6-(6-cyclopropyl-7-methoxyimidazo[1,2-b]pyridazin-3-yl)-4-fluoro-N-((3S,4S)-4-fluoropyrrolidin-3-yl)pyridin-2-amine], the IC50 is 1450 nM in the assay with MOLM14 F691L cells (Homo sapiens, MOLM-14, 48 h); < 0.5 nM against FLT3; 218 nM against IRAK1; 205 nM in the assay on MOLM14 D835Y cells (Homo sapiens, MOLM-14, 48 h); 16 nM at IRAK4.

As for `COc1cc2ncc(-c3cc(F)cc(N[C@@H]4CCCNC4)n3)n2nc1C1CC1` [Compound 104, (R)-6-(6-cyclopropyl-7-methoxyimidazo[1,2-b]pyridazin-3-yl)-4-fluoro-N-(piperidin-3-yl)pyridin-2-amine], the IC50 with MOLM14 F691L cells (Homo sapiens, MOLM-14, 48 h) is 1150 nM; on FLT3 it was < 0.5 nM; against IRAK1, 1340 nM; in the assay with MOLM14 D835Y cells (Homo sapiens, MOLM-14, 48 h), 193 nM; against IRAK4, 45 nM.

Consider `COc1cc2ncc(-c3cc(F)cc(N[C@H]4CNCC[C@@H]4F)n3)n2nc1C1CC1` [Compound 105, 6-(6-cyclopropyl-7-methoxyimidazo[1,2-b]pyridazin-3-yl)-4-fluoro-N-((3S,4S)-4-fluoropiperidin-3-yl)pyridin-2-amine], for which the IC50 was 1220 nM in the assay on MOLM14 F691L cells (Homo sapiens, MOLM-14, 48 h); < 0.5 nM against FLT3; 272 nM on IRAK1; 231 nM in the assay with MOLM14 D835Y cells (Homo sapiens, MOLM-14, 48 h); 7 nM against IRAK4.

Turning to `F[C@H]1CNC[C@@H]1Nc1cccc(-c2cnc3cccnn23)n1` [Compound 109, N-((3S,4S)-4-fluoropyrrolidin-3-yl)-6-(imidazo[1,2-b]pyridazin-3-yl)pyridin-2-amine], the IC50 against FLT3 is 9 nM; against IRAK1 it was > 10000 nM; in the assay on MOLM14 D835Y cells (Homo sapiens, MOLM-14, 48 h), 968 nM; at IRAK4, 399 nM.

Consider `F[C@H]1CNC[C@@H]1Nc1cccc(-c2cnc3cc(Cl)cnn23)n1` [Compound 110, 6-(7-chloroimidazo[1,2-b]pyridazin-3-yl)-N-((3S,4S)-4-fluoropyrrolidin-3-yl)pyridin-2-amine], for which the IC50 against FLT3 stood at 6 nM; at IRAK1, 3710 nM; in the assay on MOLM14 D835Y cells (Homo sapiens, MOLM-14, 48 h), 591 nM; on IRAK4, 190 nM.

As to `F[C@H]1CNC[C@@H]1Nc1cccc(-c2cnc3cc(C4CC4)cnn23)n1` [Compound 111, 6-(7-cyclopropylimidazo[1,2-b]pyridazin-3-yl)-N-((3S,4S)-4-fluoropyrrolidin-3-yl)pyridin-2-amine], the IC50 on FLT3 came to 4 nM; against IRAK1, 774 nM; with MOLM14 D835Y cells (Homo sapiens, MOLM-14, 48 h) it was 1010 nM; against IRAK4 it was 131 nM.

As to `FC(F)COc1cnn2c(-c3cccc(N[C@H]4CNC[C@@H]4F)n3)cnc2c1` [Compound 114, 6-(7-(2,2-difluoroethoxy)imidazo[1,2-b]pyridazin-3-yl)-N-((3S,4S)-4-fluoropyrrolidin-3-yl)pyridin-2-amine], the IC50 at FLT3 was 3 nM; against IRAK1, 3470 nM; with MOLM14 D835Y cells (Homo sapiens, MOLM-14, 48 h) it was 326 nM; against IRAK4, 94 nM.

As for `COc1cc2ncc(-c3cccc(N[C@@H]4CCCNC4)n3)n2nc1C(F)F` [Compound 117, (R)-6-(6-(difluoromethyl)-7-methoxyimidazo[1,2-b]pyridazin-3-yl)-N-(piperidin-3-yl)pyridin-2-amine], the IC50 with MOLM14 F691L cells (Homo sapiens, MOLM-14, 48 h) was 1370 nM; at FLT3, < 0.5 nM; at IRAK1 it was 383 nM; in the assay on MOLM14 D835Y cells (Homo sapiens, MOLM-14, 48 h), 109 nM; at IRAK4 it was 4 nM.

As for `COc1cc2ncc(-c3cccc(N[C@H]4CNCC[C@@H]4F)n3)n2nc1-c1cn[nH]c1` [Compound 120, N-((3S,4S)-4-fluoropiperidin-3-yl)-6-(7-methoxy-6-(1H-pyrazol-4-yl)imidazo[1,2-b]pyridazin-3-yl)pyridin-2-amine], the IC50 in the assay on MOLM14 F691L cells (Homo sapiens, MOLM-14, 48 h) is 275 nM; at FLT3, < 0.5 nM; against IRAK1 it was 85 nM; with MOLM14 D835Y cells (Homo sapiens, MOLM-14, 48 h) it was 20 nM; against IRAK4, < 0.5 nM.

For `COc1cc2ncc(-c3cccc(N[C@H]4CNCC[C@@H]4F)n3)n2nc1-c1cnn(C(F)F)c1` [Compound 129, 6-(6-(1-(difluoromethyl)-1H-pyrazol-4-yl)-7-methoxyimidazo[1,2-b]pyridazin-3-yl)-N-((3S,4S)-4-fluoropiperidin-3-yl)pyridin-2-amine], the IC50 with MOLM14 F691L cells (Homo sapiens, MOLM-14, 48 h) was 2170 nM; on FLT3, < 0.5 nM; at IRAK1, 1140 nM; in the assay on MOLM14 D835Y cells (Homo sapiens, MOLM-14, 48 h), 154 nM.

Consider `COc1cc2ncc(-c3cccc(N[C@H]4CNCC[C@@H]4F)n3)n2nc1-c1cnn(C(F)F)c1` [Compound 130, 6-(6-(1-(difluoromethyl)-1H-pyrazol-4-yl)-7-methoxyimidazo[1,2-b]pyridazin-3-yl)-N-((3S,4S)-4-fluoropiperidin-3-yl)pyridin-2-amine], for which the IC50 was 1370 nM in the assay on MOLM14 F691L cells (48 hours), < 0.5 nM on FLT3, 734 nM on IRAK1 and 137 nM with MOLM14 D835Y cells (48 hours).

What is called IC50 is the midpoint of a concentration-inhibition curve.

The record behind these values is patent US12534469B2 (CHILDREN'S HOSPITAL MEDICAL CENTER, priority 2020, dated 2026).
